We go through three molecules from US20210186879A1, “TARGETED DELIVERY OF HYDROPHILIC DRUGS TO LUNG” (DOUBLE BOND PHARMACEUTICALS AB, priority 2016, published 2021).

Data set [1] is described as follows: In vivo distribution of doxorubicin in lung and blood serum of Wistar rats. To be noted: 4 hours; for Blood serum DOX / Lung tissue DOX: 5 mg/kg i.v. single bolus, ± SD; for Blood serum Relative difference / Lung tissue Relative difference: relative to control CI-DOX (1). As for the experimental part: (§1) For in vivo investigation both rats and rabbits were used: female Wistar rats 60-75 days old weighing 300 g±30 g and Californian breed male rabbits 75-90 days old weighing 2000 g±250 g were selected. […] Different doxorubicin containing formulations with a total doxorubicin dose 5 mg/kg were administered via a single bolus injection into the tail for rats and via a slow flow of 1 ml/min in the marginal ear vein for rabbits.
(§2) Five or six pieces of lung tissue of a total weight of about 1 g were taken from different parts of a lung. The samples were homogenized with a solution of aqueous ethanol containing HCl for 20 s at 7000 rpm and for 10 s at 11000 rpm. […] Doxorubicin and doxycycline (DOC) concentration in the final supernatant was determined with fluorometric analysis and high-performance liquid chromatography respectively.
An aqueous solution of doxorubicin hydrochloride, an aqueous suspension of doxorubicin alkane sulfate and an aqueous suspension of doxorubicin alkyl sulfonate were administered via a single bolus injection into the tail Animals were sacrificed after 4 hours after administered via a single bolus injection into the tail; total doxorubicin dose 5 mg/kg. […] The results are summarized in Table 7 and illustrated in FIG. 10.

Data set [2] in a line: In vivo distribution of doxorubicin in lung and femoral muscle of Californian rabbits. To be noted: 4 hours; for Femoral muscle DOX / Lung tissue DOX: 1.25 mg/kg i.v. marginal ear vein, ± SD; for Femoral muscle Relative difference / Lung tissue Relative difference: relative to control CI-DOX (1). As for the experimental part: as §1, §2
Suspension of complexes of doxorubicin and doxorubicin hydrochloride were administered via a slow flow of 1 ml/min to rabbits in the marginal ear vein with a total doxorubicin dose 1.25 mg/kg. Animals were sacrificed after 4 hours after administration. Concentration of doxorubicin in lung and femoral muscle was determined in accordance to the procedure described above. As it is seen from table 8 the concentration of doxorubicin in femoral muscle as a representation of a system concentration is not increased for complexes compared with doxorubicin hydrochloride.

For data set [3] the following is noted: rat, in vivo, iv, 5 mg/kg.
The nature of data set [4]: Solubility in aqueous ethanol (UV method). The following applies: for Solubility in 30% ethanol: doxorubicin salts. Type of data set: physicochemical. On the procedure:
The mixture was centrifuged at 3000 rpm for 10 min and the supernatant filtered through a 0.2 micrometer filter to remove aggregates of undissolved solid product. The solubility of the compound was determined by a UV method. Particle size analysis was accomplished by laser diffraction method.

The conditions of data set [5]: cited from earlier work.

Turning to `CCCCCCCCCCCCCCOS(=O)(=O)O.COc1cccc2c1C(=O)c1c(O)c3c(c(O)c1C2=O)CC(O)(C(=O)CO)CC3OC1CC(N)C(O)C(C)O1` (stereo not drawn) [doxorubicin CnH2n+1OSO3^− n=14], in data set [1], the “Blood serum DOX” value amounted to 0.023 ± 0.009 µg/kg, the “Lung tissue DOX” value came to 3.17 ± 0.33 µg/kg, the “Blood serum Relative difference” value was determined as 1.21 and the “Lung tissue Relative difference” value came out at 4.46. In data set [2], the “Femoral muscle DOX” value came out at 0.06 ± 0.01 µg/kg, the “Lung tissue DOX” value is 6.14 ± 0.53 µg/kg, the “Femoral muscle Relative difference” value worked out at 0.26 and the “Lung tissue Relative difference” value was 7.40. For the same molecule, in data set [3], the “Particle size particularly advantageous in targeting lung tissue” value is given as 40-90 μm.
For orientation: Solubility means the dissolved amount per volume that the medium holds. In data set [4] (doxorubicin alkyl sulfates and alkane sulfonates, 30% ethanol (v/v)), `CCCCCCCCCCCCCCCCS(=O)(=O)O.COc1cccc2c1C(=O)c1c(O)c3c(c(O)c1C2=O)CC(O)(C(=O)CO)CC3OC1CC(N)C(O)C(C)O1` (stereo not drawn) [doxorubicin CnH2n+1SO3^− n=16] gave a Solubility of 11.94 µg/mL. Further, the “Solubility in 30% ethanol” value in data set [4] (Table 7) was found to be 0.012. Further, the “Solubility in 30% ethanol” value in data set [4] (Table 8) was 0.0119. Besides, in data set [1], the “Blood serum DOX” value is 0.019 ± 0.007 µg/kg, the “Lung tissue DOX” value worked out at 6.11 ± 0.75 µg/kg, the “Blood serum Relative difference” value stood at 1.04 and the “Lung tissue Relative difference” value is listed as 8.61. In data set [2], the “Femoral muscle DOX” value was 0.12 ± 0.06 µg/kg, the “Lung tissue DOX” value is 10.70 ± 0.77 µg/kg, the “Femoral muscle Relative difference” value is on record as 0.52 and the “Lung tissue Relative difference” value is listed as 12.89.
Regarding `COc1cccc2c1C(=O)c1c(O)c3c(c(O)c1C2=O)C[C@@](O)(C(=O)CO)C[C@@H]3O[C@H]1C[C@H](N)[C@H](O)[C@H](C)O1` [doxorubicin], the “Cumulative dose at which the risk of developing cardiac side effects increases dramatically” value in data set [5] is at least 550 mg/m^2.
